Measured values: ChEMBL document CHEMBL1201862, “PubChem BioAssay data set” (2004)
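Results reflect a 48-hour exposure of cells in 96-well plates to compound at five concentrations. The concentration for 50% growth inhibition is given as GI50.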 Calls of active or inactive are those of the source. Cut-off read from the data, not from the text of the source: active = GI50 up to about 1.1 µM and inactive = higher.

How the values were obtained:
Assay in all cases: NCI tumour cell line growth inhibition, 48 h
A549 = tested on: A549
EKVX = tested on: EKVX
HCC 2998 = tested on: HCC 2998
HCT-116 = tested on: HCT-116
HL-60 = tested on: HL-60
K562 = tested on: K562
NCI-H226 = tested on: NCI-H226
NCI-H23 = tested on: NCI-H23
NCI-H460 = tested on: NCI-H460
NCI-H522 = tested on: NCI-H522
OVCAR-3 = tested on: OVCAR-3
RXF 393 = tested on: RXF 393
SF-295 = tested on: SF-295
SK-MEL-2 = tested on: SK-MEL-2
SK-MEL-5 = tested on: SK-MEL-5
SK-OV-3 = tested on: SK-OV-3
SN12C = tested on: SN12C
U-251 = tested on: U-251
UACC-257 = tested on: UACC-257
UO-31 = tested on: UO-31

Row | SMILES | GI50 (A549) | GI50 (EKVX) | GI50 (HCC 2998) | GI50 (HCT-116) | GI50 (HL-60) | GI50 (K562) | GI50 (NCI-H226) | GI50 (NCI-H23) | GI50 (NCI-H460) | GI50 (NCI-H522) | GI50 (OVCAR-3) | GI50 (RXF 393) | GI50 (SF-295) | GI50 (SK-MEL-2) | GI50 (SK-MEL-5) | GI50 (SK-OV-3) | GI50 (SN12C) | GI50 (U-251) | GI50 (UACC-257) | GI50 (UO-31)
1 | CCCCCCCCCOCC(COP(=O)([O-])OCC[N+](C)(C)C)OC (stereo not drawn) | > 100 µM (inactive) | > 100 µM (inactive) | > 100 µM (inactive) | > 100 µM (inactive) | > 100 µM (inactive) | > 100 µM (inactive) | 99.1 µM (inactive) | > 100 µM (inactive) | > 100 µM (inactive) | > 100 µM (inactive) | > 100 µM (inactive) | > 100 µM (inactive) | > 100 µM (inactive) | > 100 µM (inactive) | > 100 µM (inactive) | > 100 µM (inactive) | > 100 µM (inactive) | > 100 µM (inactive) | > 100 µM (inactive) | > 100 µM (inactive)
2 | Cc1ccc2c(=O)c3ccccc3sc2c1 | > 100 µM (inactive) | 55.2 µM (inactive) | > 100 µM (inactive) | > 100 µM (inactive) | 26.9 µM (inactive) | > 100 µM (inactive) | > 100 µM (inactive) | > 100 µM (inactive) | > 100 µM (inactive) | > 100 µM (inactive) | > 100 µM (inactive) | > 100 µM (inactive) |  |  | > 100 µM (inactive) | > 100 µM (inactive) | > 100 µM (inactive) | > 100 µM (inactive) |  | > 100 µM (inactive)
3 | NS(=O)(=O)C1CCCCC1C(=O)NNC(=O)C(=O)Nc1nnc(S)[nH]1 (stereo not drawn) | > 100 µM (inactive) | > 100 µM (inactive) | > 100 µM (inactive) | > 100 µM (inactive) | > 100 µM (inactive) | > 100 µM (inactive) | > 100 µM (inactive) | > 100 µM (inactive) | > 100 µM (inactive) | > 100 µM (inactive) |  | > 100 µM (inactive) | > 100 µM (inactive) | > 100 µM (inactive) | > 100 µM (inactive) | > 100 µM (inactive) | > 100 µM (inactive) | > 100 µM (inactive) | > 100 µM (inactive) | > 100 µM (inactive)
4 | CO/N=C1/c2sccc2[C@H](NC(=O)C(F)(F)F)[C@@H]1O | > 100 µM (inactive) | > 100 µM (inactive) | > 100 µM (inactive) | > 100 µM (inactive) | > 100 µM (inactive) | > 100 µM (inactive) | > 100 µM (inactive) | > 100 µM (inactive) | > 100 µM (inactive) |  | > 100 µM (inactive) | > 100 µM (inactive) | > 100 µM (inactive) | > 100 µM (inactive) | > 100 µM (inactive) | > 100 µM (inactive) | > 100 µM (inactive) | > 100 µM (inactive) | > 100 µM (inactive) | > 100 µM (inactive)
5 | O=C(N/N=C\c1cccc2ccccc12)Nc1ccccc1 |  |  |  | > 100 µM (inactive) | > 10 µM (inactive) | > 100 µM (inactive) | > 100 µM (inactive) | > 100 µM (inactive) | > 100 µM (inactive) |  | > 100 µM (inactive) | > 100 µM (inactive) | > 100 µM (inactive) | > 100 µM (inactive) | > 100 µM (inactive) | > 100 µM (inactive) | > 100 µM (inactive) | > 100 µM (inactive) | > 100 µM (inactive) | > 100 µM (inactive)
6 | CCOC(=O)NC(=O)c1cn(CCN(CCO)C(=O)NCCCCCCNC(=O)N(CCO)CCn2cc(C(=O)NC(=O)OCC)c(=O)[nH]c2=O)c(=O)[nH]c1=O | > 100 µM (inactive) | > 100 µM (inactive) | > 100 µM (inactive) | > 100 µM (inactive) | > 100 µM (inactive) | > 100 µM (inactive) | > 100 µM (inactive) | > 100 µM (inactive) | > 100 µM (inactive) | > 100 µM (inactive) | > 100 µM (inactive) | > 100 µM (inactive) | > 100 µM (inactive) | > 100 µM (inactive) | > 100 µM (inactive) |  | > 100 µM (inactive) | > 100 µM (inactive) | > 100 µM (inactive) | > 100 µM (inactive)
7 | CCCCCCc1ccc(O)cc1O [HEXYLRESORCINOL] | 40.6 µM (inactive) | > 64.7 µM (inactive) | > 100 µM (inactive) | 53.5 µM (inactive) | 30.8 µM (inactive) | 44.8 µM (inactive) | 57.8 µM (inactive) | 47.3 µM (inactive) | 58.3 µM (inactive) | 36.1 µM (inactive) | 36.4 µM (inactive) | > 75.2 µM (inactive) | 46.8 µM (inactive) | 26.1 µM (inactive) | 31.8 µM (inactive) | > 100 µM (inactive) | 66.4 µM (inactive) | 40.4 µM (inactive) | 39.5 µM (inactive) | 24.4 µM (inactive)
8 | COc1ccc(-c2c3ccccc3c(-c3ccc(OCCCCCBr)cc3)c3ccccc23)cc1 | > 100 µM (inactive) | > 100 µM (inactive) | > 100 µM (inactive) | > 100 µM (inactive) | > 100 µM (inactive) | > 100 µM (inactive) | > 100 µM (inactive) |  | > 100 µM (inactive) | > 100 µM (inactive) | > 100 µM (inactive) |  | > 100 µM (inactive) | > 100 µM (inactive) |  | > 100 µM (inactive) | > 100 µM (inactive) |  |  | > 100 µM (inactive)
9 | CC(=O)CC(=O)CCC(=O)O [SUCCINYLACETONE] | > 100 µM (inactive) | > 100 µM (inactive) | > 100 µM (inactive) | > 100 µM (inactive) | > 100 µM (inactive) | > 100 µM (inactive) | > 100 µM (inactive) | > 100 µM (inactive) | > 100 µM (inactive) | > 100 µM (inactive) |  | > 100 µM (inactive) | > 100 µM (inactive) | > 100 µM (inactive) |  | > 100 µM (inactive) | > 100 µM (inactive) | > 100 µM (inactive) | > 100 µM (inactive) | > 100 µM (inactive)
10 | O=[PH](O)c1cccs1 | > 100 µM (inactive) | > 100 µM (inactive) |  | > 100 µM (inactive) | > 100 µM (inactive) | > 100 µM (inactive) |  | > 100 µM (inactive) | > 100 µM (inactive) | > 100 µM (inactive) |  | > 100 µM (inactive) | > 100 µM (inactive) |  | > 100 µM (inactive) | > 100 µM (inactive) | > 100 µM (inactive) | > 100 µM (inactive) |  | > 100 µM (inactive)
11 | CCCCCCCCCCCCCCCC(=O)OC1C(O)C(CO)OC(OC)C1NC(=O)N(CCCl)N=O (stereo not drawn) | 10.3 µM (inactive) | 20.1 µM (inactive) |  | 14.3 µM (inactive) |  | 22.3 µM (inactive) | 16.6 µM (inactive) | 7.94 µM (inactive) | 3.78 µM (inactive) | 10.7 µM (inactive) | 18.7 µM (inactive) |  | 10.6 µM (inactive) | 23.9 µM (inactive) | 13.2 µM (inactive) |  |  | 5.22 µM (inactive) | 16.3 µM (inactive) | 15.2 µM (inactive)
12 | CC(=O)Nc1ccc2[nH]c(C(=O)N3CC(CCl)c4c3cc(N)c3ccccc43)cc2c1 (stereo not drawn) | 0.0128 µM (active) | < 0.0148 µM (active) | < 0.01 µM (active) | 0.0137 µM (active) | < 0.01 µM (active) | < 0.0163 µM (active) | < 0.0135 µM (active) | 0.0102 µM (active) | < 0.01 µM (active) | < 0.01 µM (active) | 0.0189 µM (active) | < 0.01 µM (active) | 0.0135 µM (active) | < 0.0143 µM (active) | 0.0115 µM (active) | 0.0174 µM (active) | 0.0118 µM (active) | 0.0143 µM (active) | 0.0172 µM (active) | 0.014 µM (active)
13 | COc1ccc(N2CN(C)CSC2=S)cc1 | > 100 µM (inactive) | > 100 µM (inactive) | > 100 µM (inactive) | 71.3 µM (inactive) | 72.8 µM (inactive) | 21.1 µM (inactive) |  | > 100 µM (inactive) | 76 µM (inactive) | 29.7 µM (inactive) | 4.73 µM (inactive) | > 100 µM (inactive) | 23.4 µM (inactive) | > 100 µM (inactive) | > 100 µM (inactive) | 27.1 µM (inactive) | > 100 µM (inactive) | > 100 µM (inactive) | > 100 µM (inactive) | > 100 µM (inactive)
14 | O=C1CCC(c2ccc(Cl)cc2)=NN1c1nsc2ccccc12 | 37.9 µM (inactive) | 23.3 µM (inactive) | 18.2 µM (inactive) | 19.7 µM (inactive) | 20 µM (inactive) | 22.2 µM (inactive) |  | 26.7 µM (inactive) | 29.6 µM (inactive) |  | 17.7 µM (inactive) | 11.5 µM (inactive) |  | 19.1 µM (inactive) | > 10 µM (inactive) |  | 25.6 µM (inactive) | 34.1 µM (inactive) | 22.9 µM (inactive) | 18 µM (inactive)
15 | O=C1CNC(=O)N1 [HYDANTOIN] | > 1120 µM (inactive) | > 1120 µM (inactive) | > 1120 µM (inactive) | > 1120 µM (inactive) | > 1120 µM (inactive) | 706 µM (inactive) | 11.2 µM (inactive) | > 1120 µM (inactive) | > 1120 µM (inactive) | > 1120 µM (inactive) | > 1120 µM (inactive) | > 1120 µM (inactive) | > 1120 µM (inactive) | > 1120 µM (inactive) | > 1120 µM (inactive) | > 1120 µM (inactive) | > 1120 µM (inactive) | > 1120 µM (inactive) | > 1120 µM (inactive) | > 1120 µM (inactive)
